Source: publication PMC7851014 (Investigational New Drugs, 2020)
pIC50: −log10 of the molar value. Where two headings read alike, the source gives them in different places.

Columns and labels:
ciPTEC = details: for detection as secondary bioactivation-metabolite of ICYS: ciPTEC
Procedure: Medium and cell lysate samples were taken at 1, 2, 3 and 4 h. Each time point was measured in duplicate. Preincubation (t0) analyte concentrations in medium were also analyzed.

dehydropeptidase I = details: cited from earlier work
[1] = Ibrutinib and SMT-conjugate pharmacokinetics in human subjects (plasma of patients A and B); details: for Tmax / half-life / concentration at 1.4 h / concentration at 0.5 h / concentration at 0.8 h / concentration at 22.7 h / concentration at 22.2 h / concentration at 22.6 h / concentration at 2.5 h / concentration at 3.8 h / concentration at 1.5 h / concentration at 23.3 h / concentration at 2.8 h / concentration at 4.1 h / concentration at 4.4 h / concentration at 2.4 h / concentration at 3.9 h: human; for concentration at 2.5 h: sample ID 13, T 2.5 h; for concentration at 2.5 h / concentration at 3.8 h / concentration at 2.8 h / concentration at 4.1 h / concentration at 4.4 h / concentration at 2.4 h / concentration at 3.9 h: group max; for concentration at 2.8 h: sample ID 4, T 2.8 h; for concentration at 2.4 h: sample ID 12, T 2.4 h; for concentration at 3.9 h: sample ID 17, T 3.9 h
Procedure: (§1) For analysis, 200 μL acetonitrile containing the internal standards was added to 100 μL sample. After mixing and centrifuging, 200 μL supernatant was transferred, and thereafter the solvent was partially evaporated. Before the samples were analyzed by ultra-high-performance liquid chromatography with mass spectrometer detection [21], 100 μL of mobile phase (water:acetonitrile:formic acid, 90:10:0.1 (v:v:v)) was added.
When no time was available at all, the sample was omitted. […] Pharmacokinetic (PK) data was analyzed using the PKNCA package (version 0.8.1) [22] for the statistical software R (version 3.4.2) [23] and RStudio (version 1.1.383) [24].

[2] = Human ibrutinib metabolism during CYP3A4 inhibition (patient C, plasma, concomitant voriconazole); details: for half-life / AUC(0-t): human, plasma, oral; for AUC(0-t): 140 mg; for Exposure relative to Sum of quantified compounds / Exposure relative to ibrutinib: patient C, AUC0-24h,ss, concomitant voriconazole
Procedure: as §1
Time-concentration data of three patients were analyzed. […] When no time was available at all, the sample was omitted. […] Pharmacokinetic (PK) data was analyzed using the PKNCA package (version 0.8.1) [22] for the statistical software R (version 3.4.2) [23] and RStudio (version 1.1.383) [24].

[3] = Half-life of IGSH in human plasma; assay type: in vitro ADME; details: 37 °C, in vitro
ɣ-GT from equine kidney = assay: ɣ-glutamyl transferase assay (conversion of IGSH to ICGS); assay type: biochemical; details: approximate kinetic parameters
Procedure: IGSH was incubated with 50 mU/L ɣ-GT in a concentration range of 10–10,000 nM in phosphate buffer (100 mM, pH 7.4) at 37 °C. Michaelis-Menten kinetics were calculated by Eadie-Hofstee transformation.

[4] = Metabolism of IGSH in culture medium; assay type: in vitro ADME
Procedure: During ibrutinib incubations, IGSH was formed intracellularly and transported extracellularly where it was metabolized to ICGS and further to ICYS. IGSH and ICYS were mainly found intracellularly. […] Medium composition influences the metabolism of IGSH. IGSH was metabolized 32% faster in medium with 10% calf serum, when compared to serum-free samples. Medium that was pre-incubated with ciPTEC for 48 h (conditioned medium) was included in the experiments to investigate the possible role of secreted enzymes in the medium. The metabolism of IGSH to ICGS appeared to be 36% faster in conditioned medium.

GST [5] = system: GST; set-up: method as in PMID 8706007; details: cited from earlier work
GST [6] = assay: GST activity in ciPTEC lysate; details: 100 μM, pre-incubating lysate for 2.5 h
[7] = 420 mg, patient A, sample ID 2, T 1.4 h, 1xdd 420mg, group abs
[8] = 420 mg, patient A, sample ID 5, T 0.5 h, 1xdd 420mg, group abs
[9] = 420 mg, patient A, sample ID 6, T 0.8 h, 1xdd 420mg, group abs
[10] = 420 mg, patient A, sample ID 8, T 22.7 h, 1xdd 420mg, group trough
[11] = 420 mg, patient A, sample ID 10, T 22.2 h, 1xdd 420mg, group trough
[12] = 420 mg, patient A, sample ID 11, T 22.6 h, 1xdd 420mg, group trough
[13] = 420 mg, patient A, sample ID 14, T 3.8 h, 1xdd 420mg
[14] = 420 mg, patient A, sample ID 16, T 1.5 h, 1xdd 420mg, group abs
[15] = 420 mg, patient A, sample ID 19, T 23.3 h, 1xdd 420mg, group trough
[16] = 420 mg, patient A, sample ID 21, T 0.8 h, 1xdd 420mg, group abs
[17] = 560 mg, patient A, sample ID 3, T 0.8 h, 1xdd 560mg, group abs
[18] = 560 mg, patient B, sample ID 7, T 4.1 h, 1xdd 560mg
[19] = 560 mg, patient B, sample ID 9, T 4.4 h, 1xdd 560mg
[20] = 560 mg, patient B, sample ID 20, T 3.8 h, 1xdd 560mg
[21] = 560 mg, patient B, sample ID 23, T 4.1 h, 1xdd 560mg
[22] = 560 mg, patient B, sample ID 24, T 4.4 h, 1xdd 560mg
[23] = patient A, sample ID 15, T NA, 1xdd 420mg, omitted (no group)
[24] = patient A, sample ID 22, T NA, 1xdd 420mg, omitted (no group)

| Compound | Tmax [1] [h] | half-life [1] [h] | concentration at 1.4 h [1, 7] [nM] | concentration at 0.5 h [1, 8] [nM] | concentration at 0.8 h [1, 9] [nM] | concentration at 22.7 h [1, 10] [nM] | concentration at 22.2 h [1, 11] [nM] | concentration at 2.5 h ([1]; 420 mg, patient A, 1xdd 420mg) [nM] | concentration at 3.8 h [1, 13] [nM] | concentration at 0.8 h [1, 17] [nM] | concentration at 2.8 h ([1]; 560 mg, patient B, 1xdd 560mg) [nM] | concentration at 4.1 h [1, 18] [nM] | concentration at 4.4 h [1, 19] [nM] | concentration at 2.4 h ([1]; 560 mg, patient B, 1xdd 560mg) [nM] | concentration at 3.9 h ([1]; 560 mg, patient B, 1xdd 560mg) [nM] | concentration at 3.8 h [1, 20] [nM] | concentration at 4.1 h [1, 21] [nM] | concentration at 4.4 h [1, 22] [nM] | Concentration [1, 23] | Concentration [1, 24] | also measured |
| --- | --- | --- | --- | --- | --- | --- | --- | --- | --- | --- | --- | --- | --- | --- | --- | --- | --- | --- | --- | --- | --- |
| Nc1ncnc2c1c(-c1ccc(Oc3ccccc3)cc1)nn2C1CCCN(C(=O)CCSC2OC(C(=O)O)C(O)C(O)C2O)C1 (centres unmarked) [ibrutinib-S-glucuronide] |  |  |  |  |  |  |  |  |  |  |  |  |  |  |  |  |  |  |  |  | detection as secondary bioactivation-metabolite of ICYS (ciPTEC; 4 h incubation with ibrutinib): clearly found |
| CC1(C)C[C@@H]1C(=O)N/C(=C\CCCCSC[C@H](N)C(=O)O)C(=O)O [cilastatin] |  |  |  |  |  |  |  |  |  |  |  |  |  |  |  |  |  |  |  |  | pIC50 (dehydropeptidase I): 4.00 |
| Nc1ncnc2c1c(-c1ccc(Oc3ccccc3)cc1)nn2[C@@H]1CCCN(C(=O)CCSC[C@H](N)C(=O)NCC(=O)O)C1 [ICGS] | 2.6 | 3 | 6.7 | 5.4 | 7.3 | 5.6 | 3.7 | 412 | 72.5 | 9.7 | 160 | 191 | 88.1 | 73.2 | 226 | 78 | 239 | 160 | 5.1 nM | < LLOQ | concentration at 22.6 h [1, 12]: 3 nM; concentration at 1.5 h [1, 14]: 2.2 nM; concentration at 23.3 h [1, 15]: 0.6 nM; concentration at 0.8 h [1, 16]: 11.9 nM; half-life [2]: 40.1 h; AUC(0-t) [2]: 0.0949 µM·h; Exposure relative to Sum of quantified compounds [2]: 14%; Exposure relative to ibrutinib [2]: 29% |
| Nc1ncnc2c1c(-c1ccc(Oc3ccccc3)cc1)nn2[C@@H]1CCCN(C(=O)C(O)CO)C1 (some centres unmarked) [DHI, dihydrodiol-ibrutinib] | 3.9 | 6.1 | 43.9 | 51.6 | 48.3 | 86.6 | 90.7 | 404 | 195 | 17.5 | 346 | 523 | 393 | 450 | 542 | 524 | 468 | 484 | 59.3 nM | < LLOQ | concentration at 22.6 h [1, 12]: 45.3 nM; concentration at 1.5 h [1, 14]: 24 nM; concentration at 23.3 h [1, 15]: 30.5 nM; concentration at 0.8 h [1, 16]: 188 nM; half-life [2]: 59 h; AUC(0-t) [2]: 0.149 µM·h; Exposure relative to Sum of quantified compounds [2]: 23%; Exposure relative to ibrutinib [2]: 46% |
| Nc1ncnc2c1c(-c1ccc(Oc3ccccc3)cc1)nn2[C@@H]1CCCN(C(=O)CCSC[C@H](NC(=O)CC[C@H](N)C(=O)O)C(=O)NCC(=O)O)C1 [IGSH] | 2.8 |  |  |  |  |  |  | 1.5 | 0.5 | 0.5 | 3.5 | 1.5 | 0.8 | 0.8 | 1.9 | 0.8 | 2.2 | 1.4 | < LLOQ | < LLOQ | uptake into ciPTEC (ciPTEC; incubating with IGSH (1 μM) directly for 4 h): no uptake; Concentration ([1]; patient A, sample ID 2, T 1.4 h, 1xdd 420mg, group abs): < LLOQ; Concentration ([1]; patient A, sample ID 5, T 0.5 h, 1xdd 420mg, group abs): < LLOQ; Concentration ([1]; patient A, sample ID 6, T 0.8 h, 1xdd 420mg, group abs): < LLOQ; Concentration ([1]; patient A, sample ID 8, T 22.7 h, 1xdd 420mg, group trough): < LLOQ; Concentration ([1]; patient A, sample ID 10, T 22.2 h, 1xdd 420mg, group trough): < LLOQ; Concentration ([1]; patient A, sample ID 11, T 22.6 h, 1xdd 420mg, group trough): < LLOQ; Concentration ([1]; patient A, sample ID 16, T 1.5 h, 1xdd 420mg, group abs): < LLOQ; Concentration ([1]; patient A, sample ID 19, T 23.3 h, 1xdd 420mg, group trough): < LLOQ; Concentration ([1]; patient A, sample ID 21, T 0.8 h, 1xdd 420mg, group abs): < LLOQ; Ctrough ([1]; patients A and B, 'trough' samples n = 4, mean ± SD (range)): <0.5 nM; half-life at 500 nM [3]: 0.5 h; Km (ɣ-GT from equine kidney): 0.588 µM; Vmax (ɣ-GT from equine kidney): 25.8 μmol∙min^−1∙U^−1; metabolism of IGSH to ICGS faster ([4]; conditioned medium (pre-incubated with ciPTEC for 48 h)): 36%; IGSH metabolized faster ([4]; medium with 10% calf serum compared to serum-free samples): 32% |
| Nc1ncnc2c1c(-c1ccc(Oc3ccccc3)cc1)nn2[C@@H]1CCCN(C(=O)CCSC[C@H](N)C(=O)O)C1 [ICYS] | 4.4 | 4.2 | 5 | 5.1 | 5.6 | 6.4 | 5 | 186 | 32.1 | 3.9 | 92.8 | 170 | 89.2 | 210 | 143 | 78.7 | 194 | 210 | 12.1 nM | < LLOQ | concentration at 22.6 h [1, 12]: 4.7 nM; concentration at 1.5 h [1, 14]: 2.3 nM; concentration at 23.3 h [1, 15]: 2.6 nM; concentration at 0.8 h [1, 16]: 12 nM; half-life [2]: 78.3 h; AUC(0-t) [2]: 0.0877 µM·h; Exposure relative to Sum of quantified compounds [2]: 13%; Exposure relative to ibrutinib [2]: 27% |
| C=C(CC)C(=O)c1ccc(OCC(=O)O)c(Cl)c1Cl [ethacrynic acid] |  |  |  |  |  |  |  |  |  |  |  |  |  |  |  |  |  |  |  |  | IC97 (GST [5]): 15 µM; effect on formation of IGSH in ciPTEC lysate (GST [6]): inhibited |
| CSCCC(=O)N1CCC[C@@H](n2nc(-c3ccc(Oc4ccccc4)cc3)c3c(N)ncnc32)C1 [S-methyl-ibrutinib] |  |  |  |  |  |  |  |  |  |  |  |  |  |  |  |  |  |  |  |  | detection as secondary bioactivation-metabolite of ICYS (ciPTEC; after 48 h with ibrutinib): detected |
